“Also recorded” adds a separate entry of the source.
What was measured:
aging mice [1] = assay: Grip strength of aging mice; type: in vivo; details: for grip strength (muscle strength of forelimbs and hindlimbs): 24 to 25-month-old mice, once a week for 16 weeks, vs Control group
Description: In addition, the muscle strengths of the forelimbs and hindlimbs of 24 to 25-month-old mice were evaluated for the three groups using a grip strength measuring machine, and the evaluation was conducted once a week for 16 weeks.

promoter of MSTN = assay: pMSTN_luc luciferase assay (MSTN promoter activity); type: cell-based; details: for MSTN promoter activity (luciferase) after Doxorubicin: pretreated 3 hours (1-1: 1, 3, 10 μM; 1-2: 1, 3, 10, 30 μM), vs Doxorubicin alone
Description: After 12 hours of transfection with 1 μg of a pMSTN_luc vector (myostatin; new plasmid vector generated by inserting a promoter region of a MSTN gene into a plasmid vector (pGL4.15 vector) capable of luciferase experiment), Compound 1-1 (MFC-1) was pretreated (1, 3, and 10 μM) for 3 hours, respectively. Thereafter, luciferase activity was measured by harvesting after treatment with 0.5 μg/ml of an anticancer agent Doxorubicin for 6 hours. The results were illustrated in FIG. 1B.
(Meanwhile, the luciferase assay used in FIG. 1B was an assay of transfecting a luciferase vector into a cell, treating a drug, and then treating luciferin to measure the amount of light emitted by the activation of the promoter of the gene by the drug. This means that it is possible to determine whether the promoter was activated and that the gene may be regulated at the transcriptional level by the drug touching the promoter region.)
After 12 hours of transfection with 1 μg of the pMSTN_luc vector, Compound 1-2 (MFC-2) was pretreated (1, 3, 10, and 30 μM) for 3 hours, respectively. Thereafter, the luciferase activity was measured by harvesting after treatment with Doxorubicin 0.5 μg/ml for 6 hours. The results were illustrated in FIG. 1C.
Cedrol (Reference) and Compound 1-2 (MFC-2) were each treated (3 μM), respectively, and harvested 12 hours later to measure luciferase activity (FIG. 3J).

NF-κB promoter = assay: pNF-κB luciferase assay (NF-κB promoter activity); type: cell-based
Description: NF-κB was a transcription factor binding to a promoter region of a myostatin gene, a muscle mass regulation target protein, and to determine whether NF-κB was involved in the regulation of myostatin expression of Compound MFC-2, after 12 hours of transfection with 1 μg of the pNF-κB vector, Compound 1-2 (MFC-2) was treated (3 μM) for 12 hours. Thereafter, the luciferase activity was measured by harvesting (FIG. 3H). For reference, pGL3 and pGL4.15 shown in FIG. 3 were a type of luciferase plasmid vector, and the vector itself without the gene inserted was used as Control (control group). The vector in which the promoter region of the NF-κB gene was inserted into the luciferase vector was expressed as pNF-κB.
After 12 hours of transfection with 1 μg of the pNF-κB vector, Compound 1-2 (MFC-2) was pretreated (3 μM) for 3 hours. Thereafter, 0.5 μg/ml of Doxorubicin was treated for 6 hours, harvested, and luciferase activity was measured (FIG. 3I).

MuRF1 = assay: qRT-PCR of EDL muscle tissue of aging mice: MuRF1; type: in vivo
Excerpt: (§1) MuRF1 (muscle RING-finger protein 1) was a muscle-specific E3 ubiquitin ligase and a type of atrogene causing sarcopenia, and it was confirmed that the expression of Myostatin and MuRF1 was reduced in the EDL muscle tissue of the group fed with Compound MFC-2.

aging mice [2] = assay: Muscle size (GC, TA, EDL) of aging mice fed compound; type: in vivo; details: 21-month-old aging mice, in feed for 3 months; vs Control group
Description: 21-month-old aging mice were fed with regular feed (Control), feed containing Cedrol (Reference), and feed containing Compound 1-2 (MFC-2) for 3 months for each group, and thereafter, an animal experiment was conducted to compare the sizes of the Gastrocnemius muscle (GC), Tibialis anterior (TA), and Extensor digitorum longus (EDL) muscles separated from the hind limbs of aging mice.

[3] = Animal blood analysis of aging mice (CK, LDH, AST, TG); type: in vivo
Description: For the Control group, Reference group, and MFC-2 group, an animal blood analysis experiment was conducted on aging mice. As a result, it was confirmed that the serum CK level of creatine kinase (CK), which was an enzyme contained in skeletal muscle, myocardium, smooth muscle, etc. to be released into the blood when the muscle was damaged, decreased in the MFC-2 group compared to other groups (FIG. 5A).

Myostatin = assay: qRT-PCR of EDL muscle tissue of aging mice: myostatin; type: in vivo; details: vs Control group, listed as MFC-2
Excerpt: as §1

[4] = then Doxorubicin 0.5 μg/ml 6 hours
[5] = aging mice blood, compared to other groups
[6] = Doxorubicin 0.5 μg/ml for 6 hours, alone

C[C@@H]1CC[C@H]2C(C)(C)[C@H]3C[C@@]12CC[C@@]3(C)O [Cedrol, reference compound]
grip strength (muscle strength of forelimbs and hindlimbs) (aging mice [1]): gradually increased compared to the Control group

COc1cc(C(=O)O[C@]2(C)CC[C@@]34C[C@@H]2C(C)(C)[C@@H]3CC[C@H]4C)ccc1O [Compound 1-1, (3R,3aS,6R,7R,8aS)-3,6,8,8-tetramethyloctahydro-1H-3a,7-metanoazulen-6-yl-4-hydroxy-3-methoxybenzoate]
MSTN promoter activity (luciferase) after Doxorubicin (promoter of MSTN; [4]): lower expression level than a group treated with Doxorubicin alone

COc1cc(C(=O)O[C@]2(C)CC[C@@]34C[C@@H]2C(C)(C)[C@@H]3CC[C@H]4C)ccc1OC(C)=O [Compound 1-2, (3R,3aS,6R,7R,8aS)-3,6,8,8-tetramethyloctahydro-1H-3a,7-methanoazulen-6-yl-4-acetoxy-3-methoxybenzoate]
pMSTN-luciferase activity (promoter of MSTN; 3 μM, harvested 12 hours later, compared with Cedrol): reduced pMSTN-luciferase activity more effectively than existing Cedrol (Reference) | MSTN promoter activity (luciferase) after Doxorubicin (promoter of MSTN; [4]): lower expression level than the group treated with Doxorubicin alone | inhibitory effect on MSTN promoter activity compared with Compound 1-1 (promoter of MSTN; pretreatment, then Doxorubicin 0.5 μg/ml 6 hours): greater inhibitory effect than Compound 1-1 (MFC-1) | NF-κB promoter activity (luciferase) (NF-κB promoter; 3 μM for 12 hours, no Doxorubicin): reduces NF-κB promoter activity | NF-κB promoter activity (luciferase) after Doxorubicin (NF-κB promoter; pretreated 3 μM 3 hours, then Doxorubicin 0.5 μg/ml 6 hours, vs Doxorubicin alone): lower expression level than the group treated with Doxorubicin alone | MuRF1 mRNA expression in EDL muscle tissue (MuRF1): reduced | muscle size (GC, TA, EDL) (aging mice [2]): increase in muscle size | LDH level ([3]; aging mice blood, compared to Control group): decrease in LDH level | AST level [3, 5]: decrease in the levels thereof | TG level [3, 5]: decrease in the levels thereof | serum CK level ([3]; aging mice, compared to other groups): decreased | myostatin mRNA expression in EDL muscle tissue (Myostatin): significantly decreased compared to the Control group; also recorded: reduced | grip strength (muscle strength of forelimbs and hindlimbs) (aging mice [1]; listed as MFC-2): gradually increased compared to the Control group | grip strength compared to Reference group (Cedrol) (aging mice [1]; aging mice, from week 15): increased compared to the Reference group from week 15 later

COc1cccc2c1C(=O)c1c(O)c3c(c(O)c1C2=O)C[C@@](O)(C(=O)CO)C[C@@H]3O[C@H]1C[C@H](N)[C@H](O)[C@H](C)O1 [Doxorubicin, reference compound]
MSTN promoter activity (luciferase) (promoter of MSTN; [6]): rapidly increased | NF-κB promoter activity (luciferase) (NF-κB promoter; [6]): increased

Reference: US20240189268A1, “SESQUITERPENE DERIVATIVE OR PHARMACEUTICALLY ACCEPTABLE SALT THEREOF AND USE THEREOF” (MFC CO., LTD., priority 2021, published 2024)
